According to paper PMC6009893, “Synthesis, biological activity and molecular modelling studies of shikimic acid derivatives as inhibitors of the shikimate dehydrogenase enzyme of Escherichia coli” (Journal of Enzyme Inhibition and Medicinal Chemistry, 2018):
Converted amounts (≈) assume the structure as drawn.

Key:
Pisum sativum SDH enzyme = target: Pisum sativum SDH enzyme; set-up: method as in PMID 13686343; conditions: SA; competitive inhibition; cited from earlier work
[1] = target: T1, EcSDH (shikimate dehydrogenase enzyme of Escherichia coli) (Escherichia coli, UniProt P15770); assay: EcSDH enzymatic activity assay (NADPH oxidation at 340 nm, DHS as substrate); type: biochemical; conditions: for KI (dissociation constant for the enzyme-substrate-inhibitor complex): 25 °C, NADPH 0.21 mM, DHS 0.0625-1.5 mM, mixed type inhibition, triplicate
T1 construct: 6-Histidine tag (pCold-I) (N, cleaved yes); made in house; host or cells: E. coli ΔaroE::KanR (JW3242, Keio collection) carrying pCold-EcSDH
T1 sequence (P15770 whole entry): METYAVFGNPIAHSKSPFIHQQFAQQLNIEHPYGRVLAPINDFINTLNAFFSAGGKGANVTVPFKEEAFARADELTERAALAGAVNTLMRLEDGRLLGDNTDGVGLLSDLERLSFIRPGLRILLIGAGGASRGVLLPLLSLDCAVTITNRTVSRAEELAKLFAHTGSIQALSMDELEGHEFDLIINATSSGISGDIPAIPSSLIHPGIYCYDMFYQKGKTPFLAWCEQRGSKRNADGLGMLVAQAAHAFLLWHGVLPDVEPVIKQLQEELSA
Experimental: The enzymatic activity of EcSDH was assayed at 25 °C by monitoring the oxidation of NADPH at 340 nm (ϵ = 6.18 × 10^3 M^−1 cm^−1). All assays were performed in a Genesys 10 S UV-vis spectrophotometer (Thermo Fisher Scientific Inc., Waltham, MA). The reaction mix contained (final volume 200 µl) KH2PO4 100 mM pH 7.5, NADPH 0.21 mM, DHS, synthesised molecules and diluted enzyme. Stored enzyme stocks (200 U/ml) were diluted 1:100 in KH2PO4 100 mM pH 7.5 before use. The reaction was initiated by addition of 2 µl of the diluted EcSDH enzyme and absorbance was measured within 2 min. During assays NADPH concentration was fixed at 0.21 mM, DHS concentrations were 0.0625, 0.125, 0.25, 0.5, 1 and 1.5 mM and concentrations of amides were 0, 0.25, 0.5, 1 and 1.5 mM. Experiments were performed in triplicate.
To determine the inhibition mode Lineweaver–Burk plots of the inverse of velocities (1/v) versus the inverse of substrate concentration 1/[S] were obtained. The Michaelis–Menten constant (Km), maximum velocity (Vmax) and inhibition constants (Ki and KI) were analysed using Equation (1)[22]^,[23]. Where I represent the inhibitor concentration, KI is defined as the dissociation constant for the enzyme-substrate-inhibitor complex and Ki as the dissociation constant for the enzyme-inhibitor complex. Kinetic data were processed by nonlinear regression using the Origin software (OriginLab, Northampton, MA).
Dissociation constants were related to IC50 values following the Cheng–Prusoff Equation (2)[24]. Where IC50 represents the concentration of inhibitor producing 50% of enzyme inhibition. The determined Km of DHS was 92.29 ± 2.70 µM, and 125 µM of DHS was delimited as the substrate concentration [S]: (1) v=Vmax [S]/S1+I/KI+ Km(1+ [I]/Ki) (2) IC50= Km+[S]/Km/Ki+ ([S]/KI).
The inhibitory effect of SA amide-derivatives was tested against EcSDH at […]. To characterise the enzymatic activity for its more biological meaningful reaction, the enzyme was assayed in the direction of SA formation, for this DHS was used as the substrate. The activity of EcSDH enzyme was determined in the presence of different concentrations of synthesised compounds, and Lineweaver–Burk plots of (1/v) versus 1/[S] were obtained. […] To characterise the kinetic parameters, data were analysed using Equation (1). For every synthesised amide Ki < KI indicating a stronger affinity for the substrate free instead of bounded substrate enzyme. […] Despite the similar magnitude of inhibition, it appears that inhibition activity smoothly increases with increase in the alkyl chain length. […] The similar inhibitory effect of diamides may arise with strong participation of the extra SA substituent.

E. coli strain JM101 = assay: Minimal inhibitory concentration (MIC), broth microdilution; type: cell-based; conditions: Escherichia coli, LB media, 37 °C, 16 h, tested 4-512 mg/l, duplicate
Experimental: The broth microdilution method[25] was used to determine the MIC of synthesised molecules against E. coli strain JM101. Cells were grown to exponential phase in LB media (OD600nm ∼0.5) and the cultures were diluted to a concentration of 2 × 10^5 colony-forming units/ml. The 96-well plates containing 75 µl of LB media and synthesised compounds were inoculated with 75 µl of the bacterial suspension and shaken at 37 °C for 16 h. Compounds were tested in a range of doubling concentrations between 4 and 512 mg/l with a final dimethylsulphoxide concentration of 0.8% (v/v). LB media supplemented with kanamycin was used as a positive control, and the OD600nm of the DMSO-treated control was taken as representative of 100% bacterial growth. […] Experiments were performed in duplicate.

SDH of H. pylori = target: SDH of H. pylori; set-up: method as in PMID 16972983; conditions: SA; non-competitive inhibitor; cited from earlier work
H. pylori = system: H. pylori; set-up: method as in PMID 16972983; conditions: in vitro antibacterial activity; cited from earlier work
[2] = system: SDH of Pseudomonas putida; set-up: method as in PMID 24632659; conditions: cited from earlier work
[3] = system: SDH enzyme of Escherichia coli (EcSDH); set-up: method as in earlier work; conditions: cited from earlier work

Structure (SMILES)	IC50 [1] [µM]	Ki [1] [µM]	KI (dissociation constant for the enzyme-substrate-inhibitor complex) [1] [µM]	MIC (E. coli strain JM101) [µg/mL]	also measured
O=C(O)c1cc(O)c(O)c(O)c1 [gallic acid]	–	–	–	–	Ki (Pisum sativum SDH enzyme): 380 µM
O=C(NCCCO)C1=C[C@@H](O)[C@@H](O)[C@H](O)C1 [Mon3, (3R,4S,5R)-3,4,5-trihydroxy-N-(3-hydroxypropyl)cyclohex-1-ene-1-carboxamide]	949 ± 33	733 ± 67	1214 ± 58	512 (≈ 2210 µM)	–
COc1cc(/C=C/C(=O)CC(=O)/C=C/c2ccc(O)c(OC)c2)ccc1O [curcumin]	–	–	–	–	Ki (SDH of H. pylori): 6 µM; MIC (H. pylori): 16 µg/mL (≈ 43.4 µM)
O=C(O[C@@H]1Cc2c(O)cc(O)cc2O[C@@H]1c1cc(O)c(O)c(O)c1)c1cc(O)c(O)c(O)c1 [epigallocatechin gallate]	–	–	–	–	IC50 [2]: 3 µM
O=C(NCCCCO)C1=C[C@@H](O)[C@@H](O)[C@H](O)C1 [Mon4, (3R,4S,5R)-3,4,5-trihydroxy-N-(4-hydroxybutyl)cyclohex-1-ene-1-carboxamide]	882 ± 54	717 ± 71	1145 ± 130	512 (≈ 2090 µM)	–
O=C(NCCCCCO)C1=C[C@@H](O)[C@@H](O)[C@H](O)C1 [Mon5, (3R,4S,5R)-3,4,5-trihydroxy-N-(5-hydroxypentyl)cyclohex-1-ene-1-carboxamide]	953 ± 10	642 ± 34	1483 ± 91	512 (≈ 1970 µM)	–
COc1cc(C=O)ccc1O [vanillin]	–	–	–	–	Ki (Pisum sativum SDH enzyme): 93 µM
O=C(NCCCCNC(=O)C1=C[C@@H](O)[C@@H](O)[C@H](O)C1)C1=C[C@@H](O)[C@@H](O)[C@H](O)C1 [Dim4, (3R,3'R,4S,4'S,5R,5'R)-N,N'-(butane-1,4-diyl)bis(3,4,5-trihydroxycyclohex-1-ene-1-carboxamide)]	652 ± 65	458 ± 81	945 ± 13	512 (≈ 1280 µM)	–
O=C(NCCCCCCO)C1=C[C@@H](O)[C@@H](O)[C@H](O)C1 [Mon6, (3R,4S,5R)-3,4,5-trihydroxy-N-(6-hydroxyhexyl)cyclohex-1-ene-1-carboxamide]	829 ± 49	587 ± 49	1188 ± 26	512 (≈ 1870 µM)	–
O=C(O)c1ccc(O)c(O)c1 [protocatechuic acid]	–	–	–	–	Ki (Pisum sativum SDH enzyme): 750 µM
O=C(O)C1=C[C@@H](O)[C@@H](O)[C@H](O)C1 [SA, (-)-shikimic acid]	–	–	–	–	Ki [3]: 160 µM
O=C(NCCNC(=O)C1=C[C@@H](O)[C@@H](O)[C@H](O)C1)C1=C[C@@H](O)[C@@H](O)[C@H](O)C1 [Dim2, (3R,3'R,4S,4'S,5R,5'R)-N,N'-(ethane-1,2-diyl)bis(3,4,5-trihydroxycyclohex-1-ene-1-carboxamide)]	588 ± 55	416 ± 69	831 ± 12	512 (≈ 1370 µM)	–
O=C(NCCCNC(=O)C1=C[C@@H](O)[C@@H](O)[C@H](O)C1)C1=C[C@@H](O)[C@@H](O)[C@H](O)C1 [Dim3, (3R,3'R,4S,4'S,5R,5'R)-N,N'-(propane-1,3-diyl)bis(3,4,5-trihydroxycyclohex-1-ene-1-carboxamide)]	589 ± 56	400 ± 50	896 ± 72	512 (≈ 1330 µM)	–
